This is an account of results in US20160376632A1, “KINASE ACTIVITY DETECTION METHODS” (REGENTS OF THE UNIVERSITY OF MINNESOTA, priority 2014, published 2016).

*1 amine or outer side, *2 acyl side, *3 side chain or, on linkers, in order; H or OH if unused. [ ]: non-standard residue; d: D form. The star is where a group is joined. Kb = biotinyl-L-lysine, O=C(CCCC[C@@H]1SC[C@@H]2NC(=O)N[C@@H]21)NCCCC[C@H](N[*:1])C(=O)[*:2]; 5FAM = O=C1OC2(c3ccc(O)cc3Oc3cc(O)ccc32)c2ccc(C(=O)*)cc21; Ahx = NCCCCCC(=O)O

Data set [1] can be described thus: Determination of LRET distance from Tb3+ luminescence lifetimes. The data set is classed as physicochemical. Particulars: for Energy Transfer: E from lifetimes; for Ro: Förster distance; for τDA: Tb3+ luminescence lifetime of donor in presence of acceptor fluorophore; for τD: Tb3+ luminescence lifetime of donor without acceptor fluorophore; for R: estimated distance between Tb3+ and fluorophore. An excerpt:
The Tb^3+ luminescence lifetimes of the biosensors in their fluorophore conjugated and unconjugated forms were used to characterize the energy transfer and LRET parameters for each sensor (FIGS. 12A, 12B and 12C). LRET follows the same principles as FRET and can have the same theory applied to calculate the distance between the fluorophore acceptor and the terbium-peptide complex donor pair. The fundamental concept of Förster theory is resonance energy transfer is proportional to
where the percentage of energy transfer, E, can be determined from the lifetime measurements of the donor in the absence of the acceptor (peptide-terbium complex (donor) without the conjugated fluorophore (acceptor)) and the donor in the presence of the acceptor.
R0 the Förster distance is determined for each acceptor/donor pair and d
The luminescence decay rates peptide biosensor-Tb^3+ complexes with and without fluorophore conjugation are illustrated in FIG. 12A pSAStide-AF488:Tb^3+, FIG. 12B pSAStide-Cy5 and FIG. 12C 5-FAM-pSFAStide-A. Data represent the average±SEM of three individual replicates.

The target in data set [2] is T1, Syk (Homo sapiens, UniProt P43405).
T1 construct: EGFP (C)
The data set can be described thus: ELISA-based chemifluorescent detection of substrate phosphorylation, Syk. The data set is classed as biochemical. The note with it: anti-phosphotyrosine 4G10, Amplex Red. The procedure:
(§1) Phosphorylation of SAStide and SFAStide-A were detected using a chemifluorescent ELISA-based assay (Lipchik et al. J Am Chem. Soc 2015, 137, 2484) in which the reaction mixture was quenched using EDTA and incubated in a 96-well neutravidin coated-plate to allow for affinity capture of the biotinylated substrates individually. The total amount of peptide in the quenched reaction mixture applied to each well was 37.5 pmol, which ensured that each well was saturated with peptide (15 pmol binding capacity) for analysis. The captured peptide was then incubated an anti-phosphotyrosine primary antibody (4G10) followed by a horseradish peroxidase-conjugated secondary antibody. Chemifluorescent detection was accomplished by incubating each well with Amplex Red reagent and hydrogen peroxide in phosphate buffer, which gave a fluorescent signal proportional to the amount of horseradish peroxidase-conjugated antibody in each well, and thus reports the degree of phosphotyrosine present.
(§2) The Validation of in vitro specificity of SAStide-Cy5 and 5-FAM-SFAStide-A using ELISA-based chemifluorescence is illustrated in FIG. 14. […] Aliquots were removed at designated time points, quenched with EDTA and alongside the TR-LRET detection as described in FIGS. 3A-F in the main text, the amount of phosphorylated substrate was also measured using ELISA-based detection.

In data set [3] the target is Lyn (Homo sapiens, UniProt P07948). The data set can be described thus: ELISA-based chemifluorescent detection of substrate phosphorylation, Lyn. The data set is classed as biochemical. The note with it: anti-phosphotyrosine 4G10, Amplex Red. The protocol:
as §1, §2
In general terms: ELISA stands for enzyme-linked immunosorbent assay.

Chain of Lyn (P07948 whole entry, species assumed): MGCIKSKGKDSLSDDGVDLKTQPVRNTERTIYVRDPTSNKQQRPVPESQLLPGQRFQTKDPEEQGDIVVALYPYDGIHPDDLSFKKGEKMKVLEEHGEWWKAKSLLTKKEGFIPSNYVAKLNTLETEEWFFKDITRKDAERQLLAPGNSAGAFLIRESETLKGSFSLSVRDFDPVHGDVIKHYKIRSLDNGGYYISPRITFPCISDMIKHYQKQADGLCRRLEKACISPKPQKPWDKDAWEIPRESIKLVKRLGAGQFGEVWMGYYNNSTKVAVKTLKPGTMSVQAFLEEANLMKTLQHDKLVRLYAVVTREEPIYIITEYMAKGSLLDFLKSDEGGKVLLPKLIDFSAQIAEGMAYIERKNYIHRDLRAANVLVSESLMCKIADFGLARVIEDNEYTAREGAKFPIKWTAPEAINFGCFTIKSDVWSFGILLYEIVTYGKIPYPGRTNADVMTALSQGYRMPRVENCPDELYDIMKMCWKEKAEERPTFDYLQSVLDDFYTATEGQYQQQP

With GGDEEDYEEPDEPGGCCy5GG [SAStide-Cy5], in data set [1], the J is given as 5.4 × 10^13 M^−1 cm^−1 nm^4, the “Quantum Yield” value worked out at 0.34, the “Energy Transfer” value was determined as 0.88 and the Ro amounted to 55.1 Å. In data set [1], the τDA is 0.088 ms, the τD amounted to 0.72 ms and the R is given as 39.5 Å. Moreover, in data set [2], the “phosphorylation of the substrate by Syk in vitro” value is on record as “phosphorylated”.
With “5-FAM-Ahx-GGEEDEDIYEELDEPGGKbGG ({5FAM-Ahx}-GGEEDEDIYEELDEPGG[Kb]GG-NH2) [5-FAM-SFAStide-A, Src-family kinase peptide biosensor labelled with 5-carboxyfluorescein]”, in data set [1], the J is 9.62 × 10^14 M^−1 cm^−1 nm^4, the “Quantum Yield” value worked out at 0.21, the “Energy Transfer” value worked out at 0.89 and the Ro turned out to be 56.0 Å. In data set [1], the τDA turned out to be 0.071 ms, the τD was found to be 0.64 ms and the R is listed as 39.5 Å. Also, in data set [3], the “phosphorylation of the substrate by Lyn in vitro” value was “phosphorylated”.
